Measured values published in US10470445B2, “Fumarylacetoacetate hydrolase (Fah)-deficient and immunodeficient rats and uses thereof” (YECURIS CORPORATION, priority 2011, dated 2019).

System: Nude (RNU) rats
Test: FK506 immunosuppression of nude rats transplanted with human hepatocytes, body size
Format: in vivo, rat
Conditions: 2 mg/kg/day FK506, four weeks after hepatocyte injection
Method: Forty nude rat pups (2 weeks old) were obtained from Charles River and acclimated for a week before the study began. The rats were assigned to + or −immunosuppressive groups, with controls in each group (see Table 3 below). Rats assigned to the +immunosuppressive group were treated with 2 mg/kg/day subcutaneous doses of FK506 (Tacrolimus) throughout the study, with the initial dosage being 20 μl of 5 mg/mL FK506 ([…]) per day, based upon an average initial animal weight of 50 g at the start of the study. The −immunosuppression rats were not treated with FK506, but were injected subcutaneously with the same volume of saline throughout the study. All of the rats were then given an intravenous injection (retroorbital) of uPA adenovirus (2.5×10^9 plaque forming units (PFU) per 50 g rat) 48-96 hours before hepatocyte injection.
Two weeks after study commencement, the dose of FK506 was increased to 30 μl of 5 mg/mL due to an increase in animal weight. Four weeks after study commencement, the dose of FK506 was again increased to 25 μl of 10 mg/mL to account for growth of the rats.
Four weeks after hepatocyte injection (˜5 weeks after study commencement), at least 50 μl of whole blood was collected from the rats and allowed to clot for 1 hour at room temperature. Serum was collected by centrifuging the whole blood at 1,500 rpm×15 minutes. […]

## C=CC[C@@H]1/C=C(\C)C[C@H](C)C[C@H](OC)[C@H]2O[C@@](O)(C(=O)C(=O)N3CCCC[C@H]3C(=O)O[C@H](/C(C)=C/[C@@H]3CC[C@@H](O)[C@H](OC)C3)[C@H](C)[C@@H](O)CC1=O)[C@H](C)C[C@@H]2OC [FK506]
  body size on reweighing versus non-treated rats: significantly smaller than their non-treated counterparts
